In patent US20120238599A1, “HETEROCYCLIC COMPOUNDS AS MEK INHIBITORS” (CHEMIZON, A DIVISION OF OPTOMAGIC CO., LTD., priority 2011, published 2012) one finds IC50 data, which are given here for ten molecules.

As usually defined, the IC50 is the midpoint of a concentration-inhibition curve. A higher IC50 goes with lower potency.

The target of one test is T1, Mek1 (Homo sapiens, UniProt Q02750).
T1 construct: purchased Millipore
T1 sequence (Q02750 whole entry, species assumed): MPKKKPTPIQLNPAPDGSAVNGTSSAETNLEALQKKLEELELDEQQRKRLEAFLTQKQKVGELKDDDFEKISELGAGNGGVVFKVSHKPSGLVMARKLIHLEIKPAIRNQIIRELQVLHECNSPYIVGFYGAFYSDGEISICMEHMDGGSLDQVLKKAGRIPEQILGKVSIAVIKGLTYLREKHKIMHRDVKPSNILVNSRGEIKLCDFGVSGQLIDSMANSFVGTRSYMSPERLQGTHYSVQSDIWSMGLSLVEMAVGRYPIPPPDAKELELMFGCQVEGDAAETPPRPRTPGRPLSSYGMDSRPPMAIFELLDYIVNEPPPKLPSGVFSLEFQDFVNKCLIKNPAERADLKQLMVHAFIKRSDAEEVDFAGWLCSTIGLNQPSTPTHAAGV
Nature of the test: Mek1 kinase assay (LANCE), enzymatic activity. The format is biochemical. The conditions noted are these: Mek1 0.25 nM, 50 μM ATP, 2 nM inactive Erk1, 90 min at 23° C. The method, then: A Mek1 kinase assay (LANCE, PerkinElmer) was developed for supporting compound profiling and lead optimization. […] Then the phosphorylated Erk1 was able to phosphorylate ULight™-MBP peptide (PerkinElmer). The phosphorylated peptide was detected by Europium-anti-phospho-MBP (PerkinElmer). […] After quenching the reaction, 2 nM Europium-anti-phospho-MBP was added to the reaction mixture and incubated for 60 min, followed by a detection using EnVision. The IC50 values were derived through a curve fitting using GraFit.
(In general: In TR-FRET formats the signal depends on donor and acceptor labels being close together.)
Regarding `COc1c(C(=O)NOCCO)c(Nc2ccc(I)cc2F)n(C)c(=O)c1C`, the IC50 is less than 100 nM.
Still for that read-out and setting: next, `Cn1c(Nc2ccc(I)cc2F)c(C(=O)NOCCO)c2occc2c1=O`: less than 100 nM; `Cn1c(Nc2ccc(I)cc2F)c(C(=O)NOC[C@H](O)CO)c2occc2c1=O`: less than 100 nM; `Cn1c(Nc2ccc(I)cc2Cl)c(C(=O)NOCCO)c2occc2c1=O`: less than 100 nM.
Still for that read-out and setting: next, `Cn1c(Nc2ccc(I)cc2F)c(C(=O)NCCCO)c2occc2c1=O`: less than 5000 nM; `Cn1c(Nc2ccc(I)cc2F)c(C(=O)NOCCO)c2sccc2c1=O`: less than 1000 nM.
On to `Cc1nc2c(=O)n(C)c(Nc3ccc(I)cc3F)c(C(=O)NOCCO)c2o1`, for which the half-maximal inhibitory concentration (IC50) was less than 1000 nM.
For `Cc1noc2c(C(=O)NOCCO)c(Nc3ccc(I)cc3F)n(C)c(=O)c12`, the IC50 is less than 5000 nM.
Same read-out and setting: next, `Cc1coc2c(C(=O)NOCCO)c(Nc3ccc(I)cc3F)n(C)c(=O)c12`: less than 1000 nM.
The same measure, in the same setting: then `Cn1c(Nc2ccc(I)cc2F)c(C(=O)NOCCO)c2scnc2c1=O`, with less than 5000 nM.

For a further test, the system named is MEK. In words: Cell-based mechanism assay in A375 cell line, MEK inhibition detected by reduced ERK phosphorylation (AlphaScreen SureFire). The conditions noted are these: A375 cell line (melanoma), phospho-ERK levels, compounds incubated 1 hour at 37° C. The procedure: To investigate whether a compound is able to inhibit the activity of MEK in cells, a mechanism-based assay using A375 cell line (melanoma) was developed. In this assay (AlphaScreen, PerkinElmer), inhibition of MEK was detected by reduced ERK phosphorylation. A375 cells were cultured in a tissue culture flask to 80% confluence in DMEM plus 10% fetal bovine serum. Cells were collected and plated onto 96 well culture plates at 3×10^4 cells/well. Plates were incubated overnight at 37° C. with 5% CO2 to allow cells to adhere. Compounds were added to the plates and incubated at 37° C. for 1 hour. After removing the medium, 100 μl of cell lysis buffer were added to each well and 4 μl of cell lysate were transferred into a 384 well white Proxiplate (PerkinElmer). The phospho-ERK levels were determined by following the standard protocol supplied with the PerkinElmer SureFire Phospho-ERK 1/2 Assay Kit®. Plates were read out by EnVision (PerkinElmer). The data were analyzed using GraphPad Prism.
Take `COc1c(C(=O)NOCCO)c(Nc2ccc(I)cc2F)n(C)c(=O)c1C`: the IC50 was less than 100 nM.
Turning to `Cn1c(Nc2ccc(I)cc2F)c(C(=O)NOCCO)c2occc2c1=O`, the IC50 is less than 100 nM.
Still for that read-out and setting: then `Cn1c(Nc2ccc(I)cc2F)c(C(=O)NOC[C@H](O)CO)c2occc2c1=O`, with less than 100 nM; and `Cn1c(Nc2ccc(I)cc2Cl)c(C(=O)NOCCO)c2occc2c1=O`, with less than 100 nM; and `Cn1c(Nc2ccc(I)cc2F)c(C(=O)NCCCO)c2occc2c1=O`, with less than 100 nM.
`Cn1c(Nc2ccc(I)cc2F)c(C(=O)NOCCO)c2sccc2c1=O` gave an IC50 of less than 100 nM.
Still for that read-out and setting: then `Cc1nc2c(=O)n(C)c(Nc3ccc(I)cc3F)c(C(=O)NOCCO)c2o1`, with less than 100 nM.
With `Cc1noc2c(C(=O)NOCCO)c(Nc3ccc(I)cc3F)n(C)c(=O)c12`, the IC50 is less than 100 nM.
Molecule `Cc1coc2c(C(=O)NOCCO)c(Nc3ccc(I)cc3F)n(C)c(=O)c12` yielded an IC50 of less than 100 nM.
On the same count and under the same terms, then `Cn1c(Nc2ccc(I)cc2F)c(C(=O)NOCCO)c2scnc2c1=O`, with less than 5000 nM.
